Paper PMC8863579, “Effects of pharmacological inhibition of the sodium‐dependent phosphate cotransporter 2b (NPT2b) on intestinal phosphate absorption in mouse and rat models” (Pharmacology Research & Perspectives, 2022)
Where “and” joins values, the source holds several entries; their conditions need not be identical. Equal entries are not always repeated. Where two headings read alike, the source gives them in different places.

Key:
[1] = tested on: intestinal phosphate absorption; assay: Recovery of radiolabeled phosphate in gastrointestinal tract of rats at 4 h; assay type: in vivo, rat; conditions: LY3358966 10 mg/kg
Method: (§1) Male Sprague Dawley rats, 260–287 g for the first study and 274–362 g for the second study, were fasted for 4 h (the first 4 h of the light cycle) then dosed with placebo, a 50 or 150 mg/kg sevelamer HCl water dispersion, LY3358966 SDD (10 mg/kg API) dissolved in water, or a combination of LY3358966 SDD and sevelamer HCl. Fifteen minutes later, the animals were dosed with radiolabeled phosphate as described above. In the first study, the animals were given free access to food, then feces were collected at 6, 24, and 48 h post radiolabeled phosphate dose. In the second study, the animals were fasted an additional 4 h, then feces, stomach, small intestine, and large intestine were individually collected. The gastrointestinal tract tissues and feces were digested overnight at 37°C in 1 N NaOH, and the recovered radioactivity was determined.

intestinal NPT2b = target: T1, intestinal NPT2b (Mus musculus, UniProt Q9DBP0); assay: Acute phosphate uptake into plasma in mice; assay type: in vivo; conditions: for ED50: mouse, po, read-out: ED50, inhibition of acute phosphate uptake into plasma; for Emax, maximum inhibition of phosphate uptake into plasma: oral
T1 construct: from tissue; host or cells: intestine of live male C57BL/6 mice, oral dosing
T1 sequence (Q9DBP0 1-697): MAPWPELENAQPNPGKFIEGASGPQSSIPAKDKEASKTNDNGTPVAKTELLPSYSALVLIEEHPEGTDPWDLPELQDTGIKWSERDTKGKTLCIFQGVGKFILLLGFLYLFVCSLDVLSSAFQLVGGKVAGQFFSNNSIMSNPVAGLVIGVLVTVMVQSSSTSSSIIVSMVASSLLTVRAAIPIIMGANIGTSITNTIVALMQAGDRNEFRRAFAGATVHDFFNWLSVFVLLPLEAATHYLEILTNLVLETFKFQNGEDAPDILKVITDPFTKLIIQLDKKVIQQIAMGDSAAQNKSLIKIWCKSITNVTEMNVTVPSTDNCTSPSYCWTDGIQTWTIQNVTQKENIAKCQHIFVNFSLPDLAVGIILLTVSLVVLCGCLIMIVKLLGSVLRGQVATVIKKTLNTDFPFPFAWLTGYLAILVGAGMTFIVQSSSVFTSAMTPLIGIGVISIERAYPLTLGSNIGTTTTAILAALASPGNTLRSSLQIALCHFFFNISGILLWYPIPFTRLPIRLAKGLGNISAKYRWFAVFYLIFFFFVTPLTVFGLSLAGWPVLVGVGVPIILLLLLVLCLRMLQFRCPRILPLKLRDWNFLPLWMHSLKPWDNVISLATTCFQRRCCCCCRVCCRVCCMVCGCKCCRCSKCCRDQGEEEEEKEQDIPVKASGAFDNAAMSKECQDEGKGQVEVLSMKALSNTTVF
Method: Male C57BL/6 male mice (n = 7–9/group) at the age of about 8–9 weeks (21–29 g) were fasted overnight and throughout the study. Mice were dosed orally with varying doses of LY3358966 SDD dissolved in water or a PVP‐VA vehicle control. Fifteen minutes later, a radioactive phosphate dosing solution (200 µl of 16.25 mM Na2HPO4, 0.9% saline, pH 7.4 supplemented with about one million dpm of H3 ^33PO4) was given by oral gavage. This dose of phosphate was chosen because it approximates the mouse equivalent of the amount of bioavailable phosphate in a human meal which is 4 mg/kg phosphorus, or 320 mg phosphorus for an 80 kg person on a phosphate restricted diet. Fifteen minutes later, blood was collected and radioactivity in the plasma was determined by scintillation counting. The inhibition of acute phosphate uptake into plasma by LY3358966 was determined by comparing the counts in the plasma from LY3358966‐treated animals to that in the plasma of the vehicle‐treated animals. ED50 values were then determined with a 4‐parameter logistic curve fitting model using GraphPad Prism 7.04.
To test the ability of LY3358966 to inhibit intestinal NPT2b activity in mice over time, the above mice were bled again at 3 h post compound dose to determine the residual radioactivity in the plasma. At 4 h post compound dose, the animals were again dosed with phosphate using threefold more H3 ^33PO4 than used in the first oral dose. Fifteen minutes later, blood was collected and radioactivity in the plasma was used to calculate LY3358966 inhibition of phosphate uptake into plasma. For this calculation, the residual counts at 3 h were first subtracted from the final counts at 4 h. The 3‐h counts were typically <15% of the 4‐h counts.

[2] = tested on: intestinal phosphate absorption; assay: Recovery of radiolabeled phosphate in feces of rats; assay type: in vivo, rat; conditions: LY3358966 10 mg/kg
Method: as §1

gastric emptying = assay: Gastric emptying assay in mice; assay type: in vivo, mouse; conditions: doses up to 100 mg/kg API
Method: Male C57BL/6 mice, approximately 7–8 weeks old (18–21 g), were fasted overnight. Then, the mice were orally administered a single dose of vehicle (water) or varying doses of LY3358966 SDD dissolved in water. Fifteen minutes later, radiolabeled phosphate was given by oral gavage. Another 15 min later, the animals were sacrificed, and intact stomachs were collected and placed in 50‐ml conical tubes. Ten milliliter of 1 N NaOH was added to each tube and the stomachs were digested at 37°C overnight. Radioactivity in 100 µl digested stomach homogenate was quantitated by scintillation counting. The percent radiolabeled phosphate recovered in the stomach was calculated as the percentage of dpm recovered in the stomach versus the total dpm of radiolabeled phosphate administered.

ED50 (intestinal NPT2b; 15 min post LY3358966 dose): 0.15 mg/kg
ED50 (intestinal NPT2b; 4 h post LY3358966 dose): 1.1 mg/kg
Emax, maximum inhibition of phosphate uptake into plasma (intestinal NPT2b; 15 min post LY3358966 dose): 74%
Emax, maximum inhibition of phosphate uptake into plasma (intestinal NPT2b; 4 h post LY3358966 dose): 79%
NPT2b inhibitor mediated recovery in feces (difference between placebo and LY3358966-treated groups) ([2]; 48 h, 10 mg/kg): 5.3% and 5.34%
effect on gastric emptying (gastric emptying): no effect on gastric emptying
Structure (SMILES): CC1(C)CN(C(=O)NCCCCO)CCN1Cc1cccc(C(=O)Nc2sc3c(c2C(=O)Nc2cc(F)c(CCc4ccc(C(=O)O)cc4)c(F)c2)CCCC3)c1 [LY3358966, 4‐[2‐[2,6‐difluoro‐4‐[[2‐[[3‐[[4‐(4‐hydroxybutylcarbamoyl)‐2,2‐dimethyl‐piperazin‐1‐yl]methyl]benzoyl]amino]‐4,5,6,7‐tetrahydrobenzothiophene‐3‐carbonyl]amino]phenyl]ethyl]benzoic acid]
increase of 33P-phosphate recovery in the gastrointestinal tract over vehicle ([1]; 4 h): 6.34%
33P Recovered in G.I. Tract, Large Intestine (means ± SEM) ([1]; 4 hours): 13.75 ± 2.83%
33P Recovered in G.I. Tract, Small Intestine (means ± SEM) ([1]; 4 hours): 15.51 ± 2.37%
33P Recovered in G.I. Tract, Stomach (means ± SEM) ([1]; 4 hours): 1.83 ± 0.41%
33P Recovered in Total G.I. Tract (means ± SEM) ([1]; 4 hours, 10 mg/kg): 31.09% and 31.09 ± 1.38%
33P Recovered in Feces (0-6 hrs), Mean ± SEM [2]: 0.23 ± 0.19%
33P Recovered in Feces (6-24 hrs), Mean ± SEM [2]: 16.62 ± 1.04%
33P Recovered in Feces (24-48 hrs), Mean ± SEM [2]: 1.44 ± 0.14%
33P Recovered in Feces Total (0-48 hrs), Mean ± SEM ([2]; 10 mg/kg): 18.29 ± 1.04%
